The results in this text go back to patent publication US9828393B2, “Silylalkyloxyaryl compounds and methods for treating cancer” (THE REGENTS OF THE UNIVERSITY OF COLORADO, a body corporate, priority 2013, dated 2017).

Usually GI50 stands for the concentration at which growth is held to half of that of the control.

Common to all, as to assay type: cell-based, human
For one experiment, the system named is LOX IMVI. The experiment in a line: NCI-60 cell line screen (SRB), LOX IMVI. The settings on record: Melanoma, 48 h drug incubation, read-out: GI50. As to the method: (§1) Drug sensitivity data are provided as GI50s (concentrations required to inhibit growth by 50%). The first row of the text file identifies cell lines, separated by tabs. Subsequent rows contain compound number, compound name, and GI50 for each cell line, each separated by a tab. […] For a typical screening experiment, cells are inoculated into 96 well microtiter plates in 100 μL at plating densities ranging from 5,000 to 40,000 cells/well depending on the doubling time of individual cell lines. After cell inoculation, the microtiter plates are incubated at 37° C., 5% CO2, 95% air and 100% relative humidity for 24 h prior to addition of experimental drugs. After 24 h, two plates of each cell line are fixed in situ with TCA, to represent a measurement of the cell population for each cell line at the time of drug addition (Tz). Experimental drugs are solubilized in dimethyl sulfoxide at 400-fold the desired final maximum test concentration and stored frozen prior to use. At the time of drug addition, an aliquot of frozen concentrate is thawed and diluted to twice the desired final maximum test concentration with complete medium containing 50 μg/ml gentamicin. Additional four, 10-fold or one-half log serial dilutions are made to provide a total of five drug concentrations plus control. Aliquots of 100 μl of these different drug dilutions are added to the appropriate microtiter wells already containing 100 μl of medium, resulting in the required final drug concentrations. Following drug addition, the plates are incubated for an additional 48 h at 37° C., 5% CO2, 95% air, and 100% relative humidity. For adherent cells, the assay is terminated by the addition of cold TCA. Cells are fixed in situ by the gentle addition of 50 μl of cold 50% (w/v) TCA (final concentration, 10% TCA) and incubated for 60 minutes at 4° C. The supernatant is discarded, and the plates are washed five times with tap water and air dried. Sulforhodamine B (SRB) solution (100 μl) at 0.4% (w/v) in 1% acetic acid is added to each well, and plates are incubated for 10 minutes at room temperature. After staining, unbound dye is removed by washing five times with 1% acetic acid and the plates are air dried. Bound stain is subsequently solubilized with 10 mM trizma base, and the absorbance is read on an automated plate reader at a wavelength of 515 nm. For suspension cells, the methodology is the same except that the assay is terminated by fixing settled cells at the bottom of the wells by gently adding 50 μl of 80% TCA (final concentration, 16% TCA). Using the seven absorbance measurements [time zero, (Tz), control growth, (C), and test growth in the presence of drug at the five concentration levels (Ti)], the percentage growth is calculated at each of the drug concentrations levels. […]

For the next experiment, the system named is NCI-H23. The experiment can be described thus: NCI-60 cell line screen (SRB), NCI-H23. To be noted: Non-Small Cell Lung Cancer; NCI-H23; 48 h drug incubation; read-out: GI50. The procedure:
as §1

The next experiment relates to KM12. The experiment can be described thus: NCI-60 cell line screen (SRB), KM12. The settings on record: Colon Cancer; KM12; 48 h drug incubation; read-out: GI50. As to the method:
as §1

A further experiment deals with UACC-257. The experiment in a line: NCI-60 cell line screen (SRB), UACC-257. The settings on record: Melanoma; UACC-257; 48 h drug incubation; read-out: GI50. The procedure:
as §1

For a further experiment, the system named is CAKI-1. The experiment can be described thus: NCI-60 cell line screen (SRB), CAKI-1. The settings on record: Renal Cancer; CAKI-1; 48 h drug incubation; read-out: GI50. The procedure:
as §1

In another experiment the test system is Colon Cancer cell lines. The experiment in a line: NCI-60 cell line screen, Colon Cancer panel average. To be noted: average over Colon Cancer panel; read-out: GI50 Average. As to the method:
as §1

Another experiment concerns HOP-92. The experiment in a line: NCI-60 cell line screen (SRB), HOP-92. The settings on record: Non-Small Cell Lung Cancer; HOP-92; 48 h drug incubation; read-out: GI50. As to the method: as §1
In a further experiment the test system is HT29. The experiment can be described thus: NCI-60 cell line screen (SRB), HT29. To be noted: Colon Cancer; HT29; 48 h drug incubation; read-out: GI50. As to the method:
as §1

For another experiment, the system named is ACHN. The experiment in a line: NCI-60 cell line screen (SRB), ACHN. To be noted: Renal Cancer, 48 h drug incubation, read-out: GI50. As to the method:
as §1

Another experiment deals with NCI/ADR-RES. The experiment can be described thus: NCI-60 cell line screen (SRB), NCI/ADR-RES. To be noted: Ovarian Cancer, 48 h drug incubation, read-out: GI50. The procedure: as §1
The next experiment has as its system COLO 205. The experiment can be described thus: NCI-60 cell line screen (SRB), COLO 205. The settings on record: Colon Cancer; COLO 205; 48 h drug incubation; read-out: GI50. The procedure: as §1
Experiment [1] relates to Prostate Cancer cell lines. The experiment in a line: NCI-60 cell line screen, Prostate Cancer panel average. To be noted: average over Prostate Cancer panel; read-out: GI50 Average. The procedure: as §1
Another experiment deals with HOP-62. The experiment can be described thus: NCI-60 cell line screen (SRB), HOP-62. The settings on record: Non-Small Cell Lung Cancer; HOP-62; 48 h drug incubation; read-out: GI50. The procedure:
as §1

Another experiment deals with HCT-15. The experiment in a line: NCI-60 cell line screen (SRB), HCT-15. The settings on record: Colon Cancer; HCT-15; 48 h drug incubation; read-out: GI50. The procedure: as §1
For another experiment, the system named is Breast Cancer cell lines. The experiment can be described thus: NCI-60 cell line screen, Breast Cancer panel average. To be noted: average over Breast Cancer panel; read-out: GI50 Average. As to the method: as §1
A further experiment relates to BT-549. The experiment can be described thus: NCI-60 cell line screen (SRB), BT-549. To be noted: Breast Cancer; BT-549; 48 h drug incubation; read-out: GI50. As to the method:
as §1

A further experiment deals with CNS Cancer cell lines. The experiment in a line: NCI-60 cell line screen, CNS Cancer panel average. To be noted: average over CNS Cancer panel; read-out: GI50 Average. As to the method:
as §1

In the next experiment the test system is U-251. The experiment can be described thus: NCI-60 cell line screen (SRB), U-251. The settings on record: CNS Cancer; U-251; 48 h drug incubation; read-out: GI50. As to the method: as §1
The subject of a further experiment is HL-60(TB). The experiment can be described thus: NCI-60 cell line screen (SRB), HL-60(TB). To be noted: Leukemia; HL-60(TB); 48 h drug incubation; read-out: GI50. As to the method:
as §1

The test system of the next experiment is NCI-H460. The experiment in a line: NCI-60 cell line screen (SRB), NCI-H460. To be noted: Non-Small Cell Lung Cancer; NCI-H460; 48 h drug incubation; read-out: GI50. The procedure:
as §1

A further experiment has as its system SF-268. The experiment in a line: NCI-60 cell line screen (SRB), SF-268. The settings on record: CNS Cancer; SF-268; 48 h drug incubation; read-out: GI50. The procedure: as §1
For the next experiment, the system named is UACC-62. The experiment can be described thus: NCI-60 cell line screen (SRB), UACC-62. To be noted: Melanoma; UACC-62; 48 h drug incubation; read-out: GI50. As to the method:
as §1

The next experiment has as its system UO-31. The experiment can be described thus: NCI-60 cell line screen (SRB), UO-31. The settings on record: Renal Cancer; UO-31; 48 h drug incubation; read-out: GI50. As to the method: as §1
A further experiment concerns SNB-19. The experiment can be described thus: NCI-60 cell line screen (SRB), SNB-19. The settings on record: CNS Cancer; SNB-19; 48 h drug incubation; read-out: GI50. As to the method: as §1

Each structure is given as a SMILES string.

For the compound `CCOP(=O)(OCC)C(NC(=O)[C@H](Cc1ccc(-c2ccccc2)cc1)NC(=O)c1ccc(OCCC[Si](C)(C)C)cc1)P(=O)(OCC)OCC` [GH1505, N^α-{4-[3-(trimethylsilyl)propoxy]-benzoyl}-N-[bis(dietoxyphosphoryl)methyl]-(4-phenyl-L-phenylalaninamide)], the GI50 was found to be 1850 nM with LOX IMVI; 3050 nM with NCI-H23; 2610 nM with KM12; 2420 nM in the experiment with UACC-257; 2900 nM in the experiment on CAKI-1; 2120 nM in the experiment on Colon Cancer cell lines. Further, the GI50 in the experiment with HOP-92 is 2090 nM; in the experiment with HT29 it was 2020 nM; with ACHN, 2270 nM; in the experiment with NCI/ADR-RES, 3310 nM; in the experiment on COLO 205, 1840 nM; in experiment [1], 2020 nM. The GI50 is 2000 nM with HOP-62; 2250 nM in the experiment with HCT-15; 2170 nM in the experiment with Breast Cancer cell lines; 2090 nM in the experiment with BT-549; 2010 nM in the experiment with CNS Cancer cell lines; 2090 nM in the experiment on U-251. Besides, the GI50 in the experiment on HL-60(TB) was 2940 nM; in the experiment on NCI-H460, 1970 nM; in the experiment on SF-268, 2070 nM; in the experiment with UACC-62, 1620 nM; in the experiment on UO-31, 2770 nM; in the experiment on SNB-19, 2060 nM.
